Assay results as given in patent US20220233468A1 (priority 2021, published 2022).
Entries after “also recorded” stand apart in the source; their conditions may differ. Read-outs that look alike come from different tables or passages of the source.

How the values were obtained:
[1] = test system: TMPRSS2; assay: TMPRSS2 protein expression in cell lines by Western blotting; format: cell-based, human; mouse; conditions: a-tubulin internal control, A549, H1299, CL1-5, Beas-2B, TC-1, MLE-12 cell lines, 18 to 24 hrs treatment
Procedure: The effects of Compound A and Compound B on TMPRSS2 were investigated in A549 (human alveolar epithelial cell), H1299 (human non-small cell lung carcinoma cell), CL1-5 (human lung adenocarcinoma cell), Beas-2B (human normal bronchial epithelial cell), TC-1 (mouse lung epithelial cell) and MLE-12 (mouse lung epithelial cell) cell lines. The expression of TMPRSS2 in cells was analyzed by Western blotting, and a-tubulin was used as an internal control.

[2] = test system: SARS-CoV-2 S pseudovirions; assay: microbe, parasite or virus in culture; format: cell-based; conditions: Severe acute respiratory syndrome coronavirus 2
[3] = read-out: EC50, inhibition of cellular entry of SARS-CoV-2 S pseudovirions

## COc1ccc(/C=C/C(=O)C(F)(CC2CCC2)C(=O)/C=C/c2ccc(OC)c(OC)c2)cc1OC [Compound A, 4-fluoro-4-cyclobutylmethyl-1,7-bis(3,4-dimethoxyphenyl)hepta-1,6-diene-3,5-dione]
[1]
  protein expression of TMPRSS2: inhibit the protein expression of TMPRSS2
[2]; [3]
  EC50: ~5.3 µM

## COc1ccc(/C=C/C(=O)C(CC2CCC2)C(=O)/C=C/c2ccc(OC)c(OC)c2)cc1OC [Compound B, 4-(cyclobutylmethyl)-1,7-bis(3,4-dimethoxyphenyl)hepta-1,6-diene-3,5-dione]
[1]
  protein expression of TMPRSS2: inhibit the protein expression of TMPRSS2; also recorded: greater TMPRSS2 inhibitory activity as compared to Compound A
[2]; [3]
  EC50: ~4.6 µM
[2]; read-out: EC50, prophylactic inhibition of cellular entry of pseudovirions, wild-type Spike
  EC50: ~3.5 µM
